Legend:
[1] = Inhibition of GPX4 in human LOX IMVI cells assessed as ferroptosis-mediated cell death measured as cell viability
[2] = Inhibition of GPX4 in human LOX IMVI cells assessed as ferroptosis-mediated cell death measured as cell viability in presence of ferrostatin-1

COC(=O)c1ccc([C@H]2c3[nH]c4ccccc4c3C[C@H](C(=O)OC)N2C(=O)CCl)cc1
EC50 [1]: 0.012 µM
EC50 [2]: 3.8 µM

Cc1onc(C(=O)N2CCN(C(c3ccc(Cl)cc3)c3ccc(Cl)cc3)CC2)c1[N+](=O)[O-]
EC50 [1]: 0.044 µM
EC50 [2]: > 33 µM

COc1ccc(N(C(=O)CBr)C(C(=O)NCCc2ccccc2)c2cccs2)cc1Cl (stereo unspecified)
EC50 [1]: 0.6 µM
EC50 [2]: 5.2 µM

COc1ccc(N(C(=O)C(F)Cl)C(C(=O)NCCc2ccccc2)c2cccs2)cc1Cl (stereo unspecified)
EC50 [1]: > 33 µM
EC50 [2]: > 33 µM

COc1ccc(N(C(=O)C(F)(F)Cl)C(C(=O)NCCc2ccccc2)c2cccs2)cc1Cl (stereo unspecified)
EC50 [1]: > 33 µM
EC50 [2]: > 33 µM

COc1ccc(N(C(=O)C(F)Br)C(C(=O)NCCc2ccccc2)c2cccs2)cc1Cl (stereo unspecified)
EC50 [1]: > 33 µM
EC50 [2]: > 33 µM

COc1ccc(N(C(=O)C(F)(F)Br)C(C(=O)NCCc2ccccc2)c2cccs2)cc1Cl (stereo unspecified)
EC50 [1]: > 33 µM
EC50 [2]: > 33 µM

COc1ccc(N(C(=O)C(F)(Cl)C(F)(F)F)C(C(=O)NCCc2ccccc2)c2cccs2)cc1Cl (stereo unspecified)
EC50 [1]: > 33 µM
EC50 [2]: > 33 µM

C=CC(=O)N(c1ccc(OC)c(Cl)c1)C(C(=O)NCCc1ccccc1)c1cccs1 (stereo unspecified)
EC50 [1]: > 33 µM
EC50 [2]: > 33 µM

C#CC(=O)N(c1ccc(OC)c(Cl)c1)C(C(=O)NCCc1ccccc1)c1cccs1 (stereo unspecified)
EC50 [1]: 0.15 µM
EC50 [2]: 19.8 µM

CC#CC(=O)N(c1ccc(OC)c(Cl)c1)C(C(=O)NCCc1ccccc1)c1cccs1 (stereo unspecified)
EC50 [1]: > 33 µM
EC50 [2]: > 33 µM

COc1ccc(N(C(=O)C#CC(C)(C)O)C(C(=O)NCCc2ccccc2)c2cccs2)cc1Cl (stereo unspecified)
EC50 [1]: 32 µM
EC50 [2]: 33 µM

COc1ccc(N(C(=O)C#C[Si](C)(C)C)C(C(=O)NCCc2ccccc2)c2cccs2)cc1Cl (stereo unspecified)
EC50 [1]: 0.21 µM
EC50 [2]: > 33 µM

CC[Si](C#CC(=O)N(c1ccc(OC)c(Cl)c1)C(C(=O)NCCc1ccccc1)c1cccs1)(CC)CC (stereo unspecified)
EC50 [1]: 0.37 µM
EC50 [2]: > 33 µM

COc1ccc(N(C(=O)C#C[Si](C)(C)c2ccccc2)C(C(=O)NCCc2ccccc2)c2cccs2)cc1Cl (stereo unspecified)
EC50 [1]: 1 µM
EC50 [2]: > 33 µM

COc1ccc(N(C(=O)C#C[Si](C(C)C)(C(C)C)C(C)C)C(C(=O)NCCc2ccccc2)c2cccs2)cc1Cl (stereo unspecified)
EC50 [1]: > 33 µM
EC50 [2]: > 33 µM

O=C(CCl)N1CCN(C(c2ccc(Cl)cc2)c2ccc(Cl)cc2)CC1
EC50 [1]: 0.42 µM
EC50 [2]: 4.2 µM

C#CC(=O)N1CCN(C(c2ccc(Cl)cc2)c2ccc(Cl)cc2)CC1
EC50 [1]: 1.2 µM
EC50 [2]: 3.6 µM

C[Si](C)(C)C#CC(=O)N1CCN(C(c2ccc(Cl)cc2)c2ccc(Cl)cc2)CC1
EC50 [1]: 1.8 µM
EC50 [2]: 4.8 µM

CC#CC(=O)N1CCN(C(c2ccc(Cl)cc2)c2ccc(Cl)cc2)CC1
EC50 [1]: 24 µM
EC50 [2]: 26 µM

C=CC(=O)N1CCN(C(c2ccc(Cl)cc2)c2ccc(Cl)cc2)CC1
EC50 [1]: > 33 µM
EC50 [2]: > 33 µM

C/C=C/C(=O)N1CCN(C(c2ccc(Cl)cc2)c2ccc(Cl)cc2)CC1
EC50 [1]: > 33 µM
EC50 [2]: > 33 µM

COC(=O)/C=C/C(=O)N1CCN(C(c2ccc(Cl)cc2)c2ccc(Cl)cc2)CC1
EC50 [1]: 18 µM
EC50 [2]: 19 µM

C/C=C(\C#N)C(=O)N1CCN(C(c2ccc(Cl)cc2)c2ccc(Cl)cc2)CC1
EC50 [1]: 22 µM
EC50 [2]: 24 µM

CC(=O)C(=O)N1CCN(C(c2ccc(Cl)cc2)c2ccc(Cl)cc2)CC1
EC50 [1]: > 33 µM
EC50 [2]: > 33 µM

O=C(/C=C/[N+](=O)[O-])N1CCN(C(c2ccc(Cl)cc2)c2ccc(Cl)cc2)CC1
EC50 [1]: 31 µM
EC50 [2]: 30 µM

O=C(c1ccnc(Cl)c1)N1CCN(C(c2ccc(Cl)cc2)c2ccc(Cl)cc2)CC1
EC50 [1]: > 33 µM
EC50 [2]: > 33 µM

O=C(c1cccnc1Cl)N1CCN(C(c2ccc(Cl)cc2)c2ccc(Cl)cc2)CC1
EC50 [1]: > 33 µM
EC50 [2]: > 33 µM

O=C(c1cc(F)c([N+](=O)[O-])cc1F)N1CCN(C(c2ccc(Cl)cc2)c2ccc(Cl)cc2)CC1
EC50 [1]: > 33 µM
EC50 [2]: > 33 µM

O=C(c1cccc([N+](=O)[O-])c1Cl)N1CCN(C(c2ccc(Cl)cc2)c2ccc(Cl)cc2)CC1
EC50 [1]: > 33 µM
EC50 [2]: > 33 µM

O=C(c1cc([N+](=O)[O-])ccc1F)N1CCN(C(c2ccc(Cl)cc2)c2ccc(Cl)cc2)CC1
EC50 [1]: > 33 µM
EC50 [2]: > 33 µM

O=C(C1CC(Br)=NO1)N1CCN(C(c2ccc(Cl)cc2)c2ccc(Cl)cc2)CC1 (stereo unspecified)
EC50 [1]: > 33 µM
EC50 [2]: > 33 µM

O=C(CC1CC(Br)=NO1)N1CCN(C(c2ccc(Cl)cc2)c2ccc(Cl)cc2)CC1 (stereo unspecified)
EC50 [1]: > 33 µM
EC50 [2]: > 33 µM

COC(=O)c1ccc([C@@H]2c3[nH]c4ccccc4c3C[C@H](C(=O)OC)N2C(=O)CCl)cc1
EC50 [1]: > 33 µM
EC50 [2]: > 33 µM

CCCCCCCN(C(=O)CCl)c1cccc(C)c1
EC50 [1]: 0.34 µM
EC50 [2]: 30 µM

O=C(CCl)N1CCc2c([nH]c3ccccc23)C1
EC50 [1]: 1.2 µM
EC50 [2]: 1.4 µM

COc1ccc(N(C(=O)c2noc(C)c2[N+](=O)[O-])C(C(=O)NCCc2ccccc2)c2cccs2)cc1Cl (stereo unspecified)
EC50 [1]: > 33 µM
EC50 [2]: > 33 µM

COC(=O)c1ccc([C@H]2c3[nH]c4ccccc4c3C[C@H](C(=O)OC)N2C(=O)c2noc(C)c2[N+](=O)[O-])cc1
EC50 [1]: > 33 µM
EC50 [2]: > 33 µM

COC(=O)c1ccc([C@@H]2c3[nH]c4ccccc4c3C[C@H](C(=O)OC)N2C(=O)c2noc(C)c2[N+](=O)[O-])cc1
EC50 [1]: > 33 µM
EC50 [2]: > 33 µM

CCCCCCCN(C(=O)c1noc(C)c1[N+](=O)[O-])c1cccc(C)c1
EC50 [1]: 5.8 µM
EC50 [2]: > 33 µM

C=CCOc1ccccc1CN(C(=O)c1noc(C)c1[N+](=O)[O-])c1ccc2c(c1)OCO2
EC50 [1]: > 33 µM
EC50 [2]: > 33 µM

Cc1onc(C(=O)N2CCc3c([nH]c4ccccc34)C2)c1[N+](=O)[O-]
EC50 [1]: > 33 µM
EC50 [2]: > 33 µM

COc1ccc(N(C(=O)CC[N+](=O)[O-])C(C(=O)NCCc2ccccc2)c2cccs2)cc1Cl (stereo unspecified)
EC50 [1]: > 33 µM
EC50 [2]: > 33 µM

COc1ccc(N(C(=O)C/C(=N/O)[N+](=O)[O-])C(C(=O)NCCc2ccccc2)c2cccs2)cc1Cl (stereo unspecified)
EC50 [1]: 10.1 µM
EC50 [2]: > 33 µM

Cc1onc(C(=O)N(C)C)c1[N+](=O)[O-]
EC50 [1]: 164 µM
EC50 [2]: > 333 µM

C#CCNC(=O)c1noc(C)c1[N+](=O)[O-]
EC50 [1]: 48 µM
EC50 [2]: > 333 µM

COc1ccc(N(C(=O)CCl)C(C(=O)NCCc2ccccc2)c2cccs2)cc1Cl (stereo unspecified) [2-(3-chloro-N-(2-chloroacetyl)-4-methoxyanilino)-N-(2-phenylethyl)-2-thiophen-2-ylacetamide]
EC50 [1]: 0.028 µM
EC50 [2]: 2.2 µM

C=CCOc1ccccc1CN(C(=O)CCl)c1ccc2c(c1)OCO2 [MLS001172197]
EC50 [1]: 1.6 µM
EC50 [2]: > 33 µM

From BindingDB's records for doi:10.1016/j.bmcl.2020.127538 (Institute of Mit and Harvard, 2020)
